In patent US9241486B2, “Combination and methods for controlling turfgrass pests” (Bayer CropScience LP, priority 2012, dated 2016):

Legend:
Type in all cases: in vivo
[1] = system: Southern Chinch Bug (Blissus insularis); assay: Field plot trial on St. Augustine grass infested with Southern Chinch Bug, number of live bugs (Example 1); conditions: for Number of Chinch bugs 0 Days After Application / Number of Chinch bugs 4 Days After Application / Number of chinch bugs 7 Days After Application / Number of chinch bugs 18 Days After Application: spray, 40 gallons water per acre, spirotetramat 111 g/ha, azadirachtin 222 g/ha, imidacloprid + azadirachtin 111 + 222 g/ha; for Control of Southern chinch bugs (in words): Example 1, summary of Table 1
Description: Plots approximately 6 feet by 10 feet with three replicates and planted with St. Augustine grass are infested with the Southern Chinch Bug (Blissus insularis). Using a sprayer (research back pack sprayers), Spirotetramat (MOVENTO 240 SC) on its own, azadirachtin (AZATIN XL) on its own, and a mixture of imidacloprid (MERIT 240 SC) and azadirachtin, are applied at the application rates specified. The water application rate is 40 gallons per acre. The evaluation is performed 0 days, 4 days, 7 days, and 18 days after the treatment by determining the number of live Southern Chinch Bugs.

St. Augustine grass = assay: Chlorophyll content of St. Augustine grass infected with Southern chinch bug (Example 2); conditions: Allectus 1083 g ai/ha total, imidacloprid 448.8 g ai/ha, spirotetramat 175.8 g ai/ha, mixture 175.8 + 448.8 g ai/ha; for Chlorophyll Content 5 days: 5 days after treatment; for Chlorophyll Content 13 days: 13 days after treatment; for Chlorophyll Content 41 days: 41 days after treatment; for Chlorophyll Content 58 days: 58 days after treatment
Excerpt: (§1) Plots approximately 30 ft by 10 ft with 3 replicates and planted with St. Augustine grass are infected with Southern chinch bug (Blissus insularis). Using a pneumatic sprayer, a mixture of the spirotetramat (MOVENTO 240 SC) and imidacloprid (MERIT 240 SC) is applied in comparision to the spirotetramat (MOVENTO 240 SC) on its own, the imidacloprid (MERIT 240 SC) on its own, and the gold standard Pyrethrin treatment ALLECTUS™ (imidacloprid+bifenthrin), at the application rates specified. The water application rate is 40 gallons per acre. The evaluation is performed 0 days, 5 days, 13 days, 29 days, 41 days, and 58 days after the treatment by determining the number of chinch bugs and the chlorophyll content of the grass. The higher the chlorophyll content of the grass, the greener and lusher the grass is.

[2] = system: Southern Chinch Bug (Blissus insularis); assay: Field plot trial on St. Augustine grass infected with Southern chinch bug, number of chinch bugs (Example 2); conditions: for Number of chinch bugs at 0 Days / Number of chinch bugs at 5 days / Number of chinch bugs at 13 days / Number of chinch bugs at 29 days / Number of chinch bugs at 41 days / Number of chinch bugs at 58 days: Allectus 1083 g ai/ha total, imidacloprid 448.8 g ai/ha, spirotetramat 175.8 g ai/ha, mixture 175.8 + 448.8 g ai/ha; for Number of chinch bugs at 5 days: 5 days after treatment; for Number of chinch bugs at 13 days: 13 days after treatment; for Number of chinch bugs at 29 days: 29 days after treatment; for Number of chinch bugs at 41 days: 41 days after treatment; for Number of chinch bugs at 58 days: 58 days after treatment; for Control of Southern chinch bugs (in words): Example 2, summary of Table 2, up to 58 days after treatment
Excerpt: as §1

Row | SMILES | Number of Chinch bugs 0 Days After Application [1] | Number of Chinch bugs 4 Days After Application [1] | Number of chinch bugs 7 Days After Application [1] | Number of chinch bugs 18 Days After Application [1] | Chlorophyll Content 5 days (St. Augustine grass) | Chlorophyll Content 13 days (St. Augustine grass) | Chlorophyll Content 41 days (St. Augustine grass) | Chlorophyll Content 58 days (St. Augustine grass) | Number of chinch bugs at 0 Days [2] | Number of chinch bugs at 5 days [2] | Number of chinch bugs at 13 days [2] | Number of chinch bugs at 29 days [2] | Number of chinch bugs at 41 days [2] | Number of chinch bugs at 58 days [2] | Control of Southern chinch bugs (in words) [2] | Control of Southern chinch bugs (in words) [1]
1 | C/C=C(\C)C(=O)O[C@H]1C[C@@H](OC(C)=O)[C@@]2(C(=O)OC)CO[C@H]3[C@@H](O)[C@@](C)([C@]45O[C@@]4(C)[C@H]4C[C@@H]5O[C@@H]5OC=C[C@@]54O)[C@H]4[C@]1(CO[C@]4(O)C(=O)OC)[C@@H]32 [Azadirachtin, azadirachtin] | 12 | 15 | 5 | 11 | – | – | – | – | – | – | – | – | – | – | – | –
2 | O=[N+]([O-])/N=C1\NCCN1Cc1ccc(Cl)nc1 [Imidacloprid, imidacloprid] | – | – | – | – | 2.733 | 3.215 | 3.185 | 3.250 | 50 | 19 | 41 | 30 | 65 | 9 | neither spirotetramat or imidacloprid alone provided good control | none of the compounds provided good control
3 | CCOC(=O)OC1=C(c2cc(C)ccc2C)C(=O)N[C@]12CC[C@@H](OC)CC2 [Spirotetramat] | 6 | 12 | 6 | 10 | 3.338 | 3.250 | 2.292 | 2.149 | 50 | 45 | 73 | 45 | 83 | 26 | neither spirotetramat or imidacloprid alone provided good control | none of the compounds provided good control
